From patent US8107711B2, “User interface method and system for management and control of automated image processing in high content screening or high throughput screening” (Vala Sciences, Inc., priority 2008, dated 2012)

Tested on: IL-8 mRNA
Experiment: IL-8 mRNA assay (Quantigene reagent set) quantified by automated image processing
Type: cell-based
From the text: Through use of inexpensive reagents and simple protocols a transcription assay can be conducted in which mRNA is synthesized and then captured. The location and number of individual mRNA species captured can be visualized in cells and tissue sections by fluorescence-based detection and quantified by automated image processing.
For visualization in images, a probe is used which binds to target mRNA species with very high specificity. It is possible to generate probes to virtually any known sequence. Preferably, such probes are hybridized to the target mRNAs in cell or tissue samples that have been fixed and permeabilized. A fluorescent reagent may then added, which binds to the probe. When slides and well plates containing cultured cells are processed in this manner, and viewed with fluorescence microscopy, bright spots (mRNA loci) are apparent that correspond to individual copies of the target mRNA.
To quantify gene transcription, the mRNA loci can be individually counted for each cell. While this can be done manually, by loading such images in a general purpose image analysis program, manual analysis is very laborious and time consuming due to fatigue and inconsistency between researchers. A convenient, user-friendly, and accurate alternative may be provided by an image processing algorithm, which may be in the form of a Windows® compatible, Java-based software system, specifically engineered for this application. With reference to FIG. 1, for example, such a system identifies individual cells, and quantifies the number of mRNA loci on a per cell basis in fields of view imaged for nuclei (shown in blue with DAPI staining), and for mRNA (shown in green using fluorescent reagents). Results produced by such a system may be input into a quantitative modeling system (such as a spreadsheet process) in order to organize, quantify, model, and present the results for interpretation and analysis.
FIG. 2 illustrates the performance of an mRNA assay and quantification by an image processing algorithm in an experimental setting, using a Quantigene® reagent set available from Panomics, Inc., Fremont, Calif. and an automated image processing system available from Vala Sciences, Inc. In this assay, cells were exposed to different concentrations of phorbol 12-myristate 13-acetate (PMA), and analyzed for the copy number of IL-8 mRNA. For control cells (exposed to 0 PMA), essentially no IL-8 mRNA were detected (0.05/cell). In contrast, exposure to PMA led to a dramatic increase in the presence of the loci with an EC50 of between 0.1 and 1 ng/ml PMA.
FIG. 6 illustrates in a general way how an image processing algorithm may operate to obtain results from images in the source folder. An example of one such algorithm designed for processing images of mRNA transcription is the CyteSeer™-ViewRNA process available from Vala Sciences, Inc. The algorithm starts with a nuclear image (such as those in the left panels of FIGS. 1 and 2), and identifies all of the nuclei within the field of view. A nuclear mask for each cell is established. […] One or more sets of experimental data may then be calculated by the automated image processing system, on a per cell basis, using the result images or masks. Preferably, these experimental data are presented and arranged according to a file convention and are placed into one or more files that can be transported, loaded, or otherwise made available to a quantitative modeling system (for example, a spreadsheet process). […]

CCCCCCCCCCCCCC(=O)O[C@@H]1[C@@H](C)[C@@]2(O)[C@@H](C=C(CO)C[C@]3(O)C(=O)C(C)=C[C@@H]23)[C@@H]2C(C)(C)[C@]12OC(C)=O [PMA, phorbol 12-myristate 13-acetate]
RNA spot count (0.1 ng/ml PMA, well E15): 14.3 spots/cell
fold increase in Area Rm (1 ng/ml PMA vs control well C15): 3000 fold
RNA spot count (1 ng/ml PMA, well G15): 84.1 spots/cell
Area Rm, the average area, per cell, of the RNA mask (1 ng/ml PMA, well G15 (control well C15 <1)): > 1100
fold increase in TII Ri Rm, the total intensity of the spots/cell (PMA vs control (Table in FIG. 12)): 8000 fold
